Assay results as given in US9981928B2, “Aryl sulfide derivatives and aryl sulfoxide derivatives as acaricides and insecticides” (BAYER CROPSCIENCE AKTIENGESELLSCHAFT, priority 2013, dated 2018).
Read-outs that look alike come from different tables or passages of the source.

Columns and labels:
[1] = test system: greenhouse red spider mite (Tetranychus urticae); assay: Tetranychus urticae spray test, OP-resistant (TETRUR), bean leaf disks; assay type: in vivo; settings: bean leaf disks, after 6 days; for pest or weed control at 500 g/ha: Tetranychus urticae, foliar, 144 h, read-out: efficacy in %
Procedure, shortened: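 Efficacy (% mites killed) read 6 days after spraying infested Phaseolus vulgaris leaf disks. Compound preparation: acetone and dimethylformamide solvent, made up in water with 1000 ppm alkylaryl polyglycol ether emulsifier; OP-resistant mite strain, all life stages.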

[2] = test system: southern root-knot nematode (Meloidogyne incognita); assay: Meloidogyne incognita test (MELGIN); assay type: in vivo; settings: lettuce in sand; application rate 20 ppm; after 14 days
Experimental: Meloidogvne incognita test (MELGIN)
Solvent: 125.0 parts by weight of acetone
To produce a suitable preparation of active compound, 1 part by weight of active compound is mixed with the stated amount of solvent and the concentrate is diluted with water to the desired concentration.
Vessels are filled with sand, active compound solution, an egg/larvae suspension of the southern root-knot nematode (Meloidogyne incognita) and lettuce seeds. The lettuce seeds germinate and the plants develop. The galls develop on the roots.
After 14 days, the nematicidal efficacy in % is determined by the formation of galls. 100% means that no galls were found; 0% means that the number of galls on the treated plants corresponds to the untreated control.

[3] = log P determination by HPLC on reversed-phase columns (C 18), analogously to OECD Guideline 117; assay type: physicochemical; settings: for logP (HCOOH): LC-MS in the acidic range, pH 2.7, 0.1% aqueous formic acid / acetonitrile; for logP (HCOOH) / logP (neutral): HPLC reversed-phase C 18; for logP (neutral): LC-MS in the neutral range, pH 7.8, 0.001 molar aqueous ammonium hydrogencarbonate / acetonitrile; for chromatographic logP: reversed-phase C18 HPLC column
Procedure, shortened: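 Reversed-phase C18 HPLC per OECD 117 with LC-MS detection and a linear 10→95% acetonitrile gradient. Acidic log P run at pH 2.7 with 0.1% formic acid in both eluents. Neutral log P run at pH 7.8 with 0.001 M aqueous ammonium hydrogencarbonate.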

[4] = test system: cattle ticks (Boophilus microplus); assay: Boophilus microplus injection test (BOOPMI inj); assay type: in vivo; settings: injection into the abdomen; application rate 20 μg/animal; assessed after 7 days
Experimental: Boophilus microplus—Injection Test (BOOPMI inj)
Solvent: dimethyl sulfoxide
To produce a suitable preparation of active compound, 10 mg of active compound are mixed with 0.5 ml of solvent and the concentrate is diluted with solvent to the desired concentration.
1 μl of the active compound solution is injected into the abdomen of 5 engorged adult female cattle ticks (Boophilus microplus). The animals are transferred into dishes and kept in a climate-controlled room.
Efficacy is assessed after 7 days by laying of fertile eggs. Eggs which are not visibly fertile are stored in a climate-controlled cabinet until the larvae hatch after about 42 days. An efficacy of 100% means that none of the ticks has laid any fertile eggs; 0% means that all the eggs are fertile.

[5] = acidic range, pH 2.7, 0.1% aqueous formic acid and acetonitrile, read-out: log P[a] / log P(HCOOH)
[6] = neutral range, pH 7.8, 0.001 molar aqueous ammonium hydrogencarbonate and acetonitrile, read-out: log P[b] / log P(neutral)

| chromatographic logP [3, 5] | chromatographic logP [3, 6] | Compound | efficacy in % ([1]; application rate 500 g/ha) | nematicidal efficacy in % (formation of galls) [2] | logP (HCOOH) [3] | logP (neutral) [3] | efficacy (laying of fertile eggs) [4] | pest or weed control at 500 g/ha ([1]; application rate 500 g/ha) | efficacy in % ([1]; application rate 100 g/ha) |
| --- | --- | --- | --- | --- | --- | --- | --- | --- | --- |
|  |  | COc1ccc(-n2c(=O)n(C3CC3)c(=O)n2C)cc1SCC(F)(F)F [Example 42] | 100% | 90% | 2.51 | 2.46 |  |  |  |
|  |  | C=CCn1c(=O)n(C2CC2)c(=O)n1-c1ccc(C)c(SCC(F)(F)F)c1 [Example 48] | 100% |  | 3.37 | 3.31 | 80% |  |  |
| 2.59 | 2.58 | Cc1ccc(-n2c(=O)n(C)c(=O)n2C)cc1SCC(F)(F)F [Example 20, 1,4-Dimethyl-2-{4-methyl-3-[(2,2,2-trifluoroethyl)sulfanyl]phenyl}-1,2,4-triazolidine-3,5-dione] |  | 90% |  |  |  | 100% |  |
|  |  | Cc1cc(F)c(N2CC(=O)N(C3CC3)C2=O)cc1[S+]([O-])CC(F)(F)F (stereo not shown) [Example 209] | 100% | 90% | 1.92 |  | 100% |  |  |
|  |  | Cc1ccc(-n2c(=O)n(C3CC3)c(=O)n2C)cc1SCC(F)(F)F [Example 36] | 100% | 100% | 2.89 | 2.87 |  |  |  |
|  |  | Cn1c(=O)n(C)n(-c2cc(SCC(F)(F)F)c(Cl)cc2F)c1=O [Example 30] | 100% | 90% | 2.71 | 2.67 |  |  |  |
|  |  | Cc1cc(F)c(N2C(=O)CSC2=NCC(C)C)cc1SCC(F)(F)F [Example 115] | 100% |  | 4.33 | 4.31 | 100% |  |  |
|  |  | Cc1cc(F)c(N2CC(=O)N(C3CC3)C2=O)cc1SCC(F)(F)F [Example 210] | 100% | 90% | 2.91 |  | 100% |  |  |
|  |  | CCn1c(=O)n(C)n(-c2cc(SCC(F)(F)F)c(C)cc2F)c1=O [Example 83] | 100% | 100% | 2.92 | 2.88 |  |  |  |
|  |  | Cn1c(=O)n(C)n(-c2cc([S+]([O-])CC(F)(F)F)c(Cl)cc2F)c1=O (stereo not shown) [Example 29] | 90% | 90% | 1.93 | 1.91 |  |  |  |
|  |  | Cc1cc(C)c([S+]([O-])CC(F)(F)F)cc1-n1c(=O)n(C)c(=O)n1C (stereo not shown) [Example 33] | 90% | 90% | 1.75 | 1.70 |  |  |  |
|  |  | Cn1c(=O)n(C2CC2)c(=O)n1-c1ccc(Br)c([S+]([O-])CC(F)(F)F)c1 (stereo not shown) [Example 45] |  | 90% | 2.27 | 2.24 |  |  |  |
|  |  | COc1ccc(-n2c(=O)n(C3CC3)c(=O)n2C)cc1[S+]([O-])CC(F)(F)F (stereo not shown) [Example 41] | 90% | 90% | 1.77 | 1.75 |  |  |  |
|  |  | Cc1cc(C)c([S+]([O-])CC(F)(F)F)cc1-n1c(=O)n(C2CC2)c(=O)n1C (stereo not shown) [Example 47] | 90% |  | 1.98 | 1.93 | 100% |  |  |
|  |  | Cn1c(=O)n(C)n(-c2cc([S+]([O-])CC(F)(F)F)c(Br)cc2F)c1=O (stereo not shown) [Example 69] |  | 90% | 2.01 | 1.98 |  |  |  |
|  |  | Cc1cc(F)c(N2C(=O)C3(CCC3)C(=O)N2C)cc1SCC(F)(F)F [Example 179] | 100% | 90% | 3.00 | 2.96 |  |  |  |
|  |  | CCn1c(=O)n(C)n(-c2cc([S+]([O-])CC(F)(F)F)c(C)cc2F)c1=O (stereo not shown) [Example 74] |  | 90% | 1.93 | 1.91 |  |  | 90% |
|  |  | CCn1c(=O)n(C2CC2)c(=O)n1-c1cc(SCC(F)(F)F)c(C)cc1F [Example 127] | 100% | 90% | 3.19 | 3.17 |  |  |  |
|  |  | Cc1cc(F)c(N2CC(=O)N(C)C2=O)cc1[S+]([O-])CC(F)(F)F (stereo not shown) [Example 208] | 100% | 90% | 1.68 |  | 100% |  |  |
|  |  | Cn1c(=O)n(C2CC2)c(=O)n1-c1cc([S+]([O-])CC(F)(F)F)c(Cl)cc1F (stereo not shown) [Example 38] | 100% | 100% | 2.18 | 2.16 |  |  |  |
| 3.44 | 3.39 | Cc1cc(F)c(-n2c(=O)n(C3CC3)c(=S)n2C)cc1SCC(F)(F)F [Example 181, 4-Cyclopropyl-2-{2-fluoro-4-methyl-5-[(2,2,2-trifluoroethyl)sulfanyl]phenyl}-1-methyl-5-thioxo-1,2,4-triazolidin-3-one] |  | 90% |  |  |  | 90% |  |
|  |  | C=CCn1c(=O)n(C)n(-c2cc([S+]([O-])CC(F)(F)F)c(C)cc2F)c1=O (stereo not shown) [Example 80] | 100% | 90% | 2.07 | 2.03 |  |  |  |
| 3.83 | 3.76 | Cc1cc(F)c(-n2c(=S)n(C3CC3)c(=S)n2C)cc1SCC(F)(F)F [Example 182, 4-cyclopropyl-1-{2-fluoro-4-methyl-5-[(2,2,2-trifluoroethyl)sulfanyl]phenyl}-2-methyl-1,2,4-triazolidine-3,5-dithione] |  | 90% |  |  |  |  |  |
| 1.89 | 1.85 | Cc1cc(F)c(N2C(=O)C(C)(C)C(=O)N2C)cc1[S+]([O-])CC(F)(F)F (stereo not shown) [Example 177, 1-{2-Fluoro-4-methyl-5-[(2,2,2-trifluoroethyl)sulfinyl]phenyl}-2,4,4-trimethylpyrazolidine-3,5-dione] |  | 90% |  |  |  | 90% |  |
|  |  | C=CCn1c(=O)n(C)n(-c2cc(SCC(F)(F)F)c(C)cc2F)c1=O [Example 81] |  | 90% | 3.05 | 3.01 |  |  | 100% |
| 2.66 |  | Cc1cc(F)c(N2CCOC2=O)cc1SCC(F)(F)F [Example 104, 3-[2-Fluoro-4-methyl-5-(2,2,2-trifluoroethylsulfanyl)phenyl]oxazolidin-2-one] |  |  |  |  | 100% | 100% |  |
|  |  | Cn1c(=O)n(C)n(-c2cc([S+]([O-])CC(F)(F)F)c(F)cc2F)c1=O (stereo not shown) [Example 70] |  | 90% | 1.64 | 1.59 |  |  |  |
|  |  | Cn1c(=O)n(C2CC2)c(=O)n1-c1ccc(C#N)c(SCC(F)(F)F)c1 [Example 44] |  | 90% | 2.53 | 2.45 |  |  |  |
